{"source": "patent US20250092064A1", "about": "“BENZOTRIAZOLE COMPOUND” (DAIICHI SANKYO COMPANY, LIMITED, priority 2022, published 2025)", "key": {"[1]": {"target": "binding between Nrf2 and Keap1 (Homo sapiens (Human), UniProt Q14145)", "sequence (Q14145 325-624 limits assumed)": "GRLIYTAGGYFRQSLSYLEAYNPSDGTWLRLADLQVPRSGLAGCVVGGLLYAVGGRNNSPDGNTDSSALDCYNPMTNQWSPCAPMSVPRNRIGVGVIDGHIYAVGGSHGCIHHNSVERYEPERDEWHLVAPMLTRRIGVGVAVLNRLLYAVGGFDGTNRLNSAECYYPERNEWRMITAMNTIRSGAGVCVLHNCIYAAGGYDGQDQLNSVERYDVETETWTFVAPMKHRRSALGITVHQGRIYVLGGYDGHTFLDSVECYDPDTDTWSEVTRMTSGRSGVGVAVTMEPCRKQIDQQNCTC", "assay": "FP assay (in vitro): inhibition of Nrf2-Keap1 binding by fluorescence polarization", "settings": "GST-fused human Keap1 (325-642) 20 nM, FITC-labeled Nrf2 peptide 10 nM, 2 hr at room temperature"}, "[2]": {"tested_on": "NQO1 activity in Hepa1c1c7 cells", "assay": "NAD(P)H: quinone oxidoreductase-1 (NQO1) enzyme induction assay (in vitro)", "assay_type": "cell-based, mouse", "settings": "Mus musculus, Hepa-1c1c7, NQO1 activity with 400 nM test compound as a ratio from the base without compound, about 48 hr", "summary_of_the_method": "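Mouse Hepa1c1c7 hepatoma cells treated 48 hr with 400 nM compound (final). NQO1 activity in lysates read by absorbance at 610 nm; value is background-subtracted activity ratio versus untreated cells.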"}, "[3]": {"assay": "Measurement test of plasma drug concentration after oral administration in rats", "assay_type": "in vivo", "settings": "male SD rats, 10 mg/2 mL/kg in 0.5% methylcellulose; for AUC(0-t): rat, plasma, 10 mg/kg, read-out: AUC0-24", "protocol": "10 mg/2 mL/kg of the test compound suspended in 0.5% methylcellulose solution were force-fed to Male SD rats (7 weeks old, Japan SLC). Blood was collected from the jugular vein using a syringe with heparin at 0.5, 1, 2, 4, 6, and 24 hr after administration. After blood collection, to 20 μL of centrifuged plasma was added an equal volume of acetonitrile followed by 200 μL of internal standard (IS) solution. After agitation, all the supernatant after centrifugation was filtered, and the collected filtrate was used as the assay sample. Equal volumes of the test compound solution prepared in acetonitrile were added to blank plasma, and the samples processed in the same manner as above were used as samples for the calibration curve. The prepared samples were measured using LC/MS/MS, and the area under the blood concentration-time curve (AUC) was calculated from the compound concentration in plasma."}}, "data": [{"compound": "CC[C@@H]1CN(Cc2cc([C@H](CC(=O)O)c3ccc4c(nnn4C)c3C)cc3ccsc23)S(=O)(=O)c2cc(Cl)cnc2O1", "note": "[Example 7, (3S)-3-(7-{[(4R)-8-Chloro-4-ethyl-1,1-dioxido-3,4-dihydro-2H-pyrido[2,3-b][1,4,5]oxathiazepin-2-yl]methyl}-1-benzothiophen-5-yl)-3-(1,4-dimethyl-1H-benzotriazol-5-yl)propanoic acid]", "values": [{"measurement": "IC50", "setting": "[1]", "result": "≤ 10", "unit": "nM"}, {"measurement": "fold induction at 0.4 µM", "setting": "[2]", "result": "> 5"}, {"measurement": "maximam plasma concentration", "setting": "[3]", "result": 0.009, "unit": "µM"}, {"measurement": "AUC(0-t)", "setting": "[3]", "result": 0.03, "unit": "µM·h"}]}, {"compound": "CC[C@@H]1CN(Cc2cc([C@@H](CC(=O)O)c3ccc4c(nnn4C)c3C)cc3ccsc23)S(=O)(=O)c2cc(Cl)cnc2O1", "note": "[Example 8, (3R)-3-(7-{[(4R)-8-Chloro-4-ethyl-1,1-dioxido-3,4-dihydro-2H-pyrido[2,3-b][1,4,5]oxathiazepin-2-yl]methyl}-1-benzothiophen-5-yl)-3-(1,4-dimethyl-1H-benzotriazol-5-yl)propanoic acid]", "values": [{"measurement": "IC50", "setting": "[1]", "result": "≤ 10", "unit": "nM"}, {"measurement": "fold induction at 0.4 µM", "setting": "[2]", "result": "> 5"}, {"measurement": "maximam plasma concentration", "setting": "[3]", "result": 0.005, "unit": "µM"}, {"measurement": "AUC(0-t)", "setting": "[3]", "result": 0.023, "unit": "µM·h"}]}, {"compound": "CC[C@@H]1CN(Cc2cc([C@H](CC(=O)O)c3cc(OC(F)F)c4c(nnn4C)c3C)cc3ccsc23)S(=O)(=O)c2cc(Cl)cnc2O1", "note": "[Example 108, (3S)-3-(7-{[(4R)-8-Chloro-4-ethyl-1,1-dioxido-3,4-dihydro-2H-pyrido[2,3-b][1,4,5]oxathiazepin-2-yl]methyl}-1-benzothiophen-5-yl)-3-[7-(difluoromethoxy)-1,4-dimethyl-1H-benzotriazol-5-yl]propanoic acid]", "values": [{"measurement": "IC50", "setting": "[1]", "result": "30 to 100", "unit": "nM"}, {"measurement": "fold induction at 0.4 µM", "setting": "[2]", "result": "> 5"}]}, {"compound": "CC[C@@H]1CN(Cc2cc([C@@H](CC(=O)O)c3cc(C4CC4)c4c(nnn4C)c3C)cc3c2CCC3)S(=O)(=O)c2cc(Cl)cnc2O1", "note": "[Example 39, (3R)-3-(7-{[(4R)-8-Chloro-4-ethyl-1,1-dioxido-3,4-dihydro-2H-pyrido[2,3-b][1,4,5]oxathiazepin-2-yl]methyl}-2,3-dihydro-1H-inden-5-yl)-3-(7-cyclopropyl-1,4-dimethyl-1H-benzotriazol-5-yl)propanoic acid]", "values": [{"measurement": "IC50", "setting": "[1]", "result": "10 to 30", "unit": "nM"}, {"measurement": "fold induction at 0.4 µM", "setting": "[2]", "result": "3 to 5"}]}, {"compound": "Cc1c([C@@H](CC(=O)O)c2cc3c(c(CN4CC5(CC5)Oc5ncc(Cl)cc5S4(=O)=O)c2)CCC3)ccc2c1nnn2C", "note": "[Example 43, (3S)-3-{7-[(8′-Chloro-1′,1′-dioxido-spiro[cyclopropane-1,4′-pyrido[2,3-b][1,4,5]oxathiazepine]-2′(3′H)-yl)methyl]-2,3-dihydro-1H-inden-5-yl}-3-(1,4-dimethyl-1H-benzotriazol-5-yl)propanoic acid]", "values": [{"measurement": "IC50", "setting": "[1]", "result": "≤ 10", "unit": "nM"}, {"measurement": "fold induction at 0.4 µM", "setting": "[2]", "result": "> 5"}]}, {"compound": "CC[C@@H]1CN(Cc2cc([C@H](CC(=O)O)c3ccc4c(nnn4C)c3C)cc3c2CCC3)S(=O)(=O)c2cc(Cl)cnc2O1", "note": "[Example 4, (3S)-3-(7-{[(4R)-8-Chloro-4-ethyl-1,1-dioxido-3,4-dihydro-2H-pyrido[2,3-b][1,4,5]oxathiazepin-2-yl]methyl}-2,3-dihydro-1H-inden-5-yl)-3-(1,4-dimethyl-1H-benzotriazol-5-yl)propanoic acid]", "values": [{"measurement": "IC50", "setting": "[1]", "result": "≤ 10", "unit": "nM"}, {"measurement": "fold induction at 0.4 µM", "setting": "[2]", "result": "> 5"}, {"measurement": "maximam plasma concentration", "setting": "[3]", "result": 0.029, "unit": "µM"}, {"measurement": "AUC(0-t)", "setting": "[3]", "result": 0.05, "unit": "µM·h"}]}, {"compound": "CC[C@@H]1CN(Cc2cc(C(CC(=O)O)c3ccc4c(nnn4C)c3Cl)cc3ccoc23)S(=O)(=O)c2cc(Cl)cnc2O1", "note": "(stereo partly drawn) [Example 92, 3-(7-{[(4R)-8-Chloro-4-ethyl-1,1-dioxido-3,4-dihydro-2H-pyrido[2,3-b][1,4,5]oxathiazepin-2-yl]methyl}-1-benzofuran-5-yl)-3-(4-chloro-1-methyl-1H-benzotriazol-5-yl)propanoic acid]", "values": [{"measurement": "IC50", "setting": "[1]", "result": "10 to 30", "unit": "nM"}, {"measurement": "fold induction at 0.4 µM", "setting": "[2]", "result": "> 5"}]}, {"compound": "CC[C@@H]1CN(Cc2cc([C@@H](CC(=O)O)c3ccc4c(nnn4C)c3C)cc3c2CCC3)S(=O)(=O)c2cc(Cl)cnc2O1", "note": "[Example 5, (3R)-3-(7-{[(4R)-8-Chloro-4-ethyl-1,1-dioxido-3,4-dihydro-2H-pyrido[2,3-b][1,4,5]oxathiazepin-2-yl]methyl}-2,3-dihydro-1H-inden-5-yl)-3-(1,4-dimethyl-1H-benzotriazol-5-yl)propanoic acid]", "values": [{"measurement": "IC50", "setting": "[1]", "result": "10 to 30", "unit": "nM"}, {"measurement": "fold induction at 0.4 µM", "setting": "[2]", "result": "> 5"}, {"measurement": "maximam plasma concentration", "setting": "[3]", "result": 0.006, "unit": "µM"}, {"measurement": "AUC(0-t)", "setting": "[3]", "result": 0.035, "unit": "µM·h"}]}, {"compound": "CC[C@@H]1CN(Cc2cc(C(CC(=O)O)c3cc(C4CC4)c4c(nnn4C)c3C)cc3[nH]ccc23)S(=O)(=O)c2cc(Cl)cnc2O1", "note": "(stereo partly drawn) [Example 103, 3-(4-{[(4R)-8-Chloro-4-ethyl-1,1-dioxido-3,4-dihydro-2H-pyrido[2,3-b][1,4,5]oxathiazepin-2-yl]methyl}-1H-indol-6-yl)-3-(7-cyclopropyl-1,4-dimethyl-1H-benzotriazol-5-yl)propanoic acid]", "values": [{"measurement": "IC50", "setting": "[1]", "result": "≤ 10", "unit": "nM"}, {"measurement": "fold induction at 0.4 µM", "setting": "[2]", "result": "> 5"}]}, {"compound": "CC[C@@H]1CN(Cc2cc([C@@H](CC(=O)O)c3cc(C4CC4)c4c(nnn4C)c3C)cc3c2CCC3)[C@@H](C)c2ncccc2O1", "note": "[Example 105, (3R)-3-(7-Cyclopropyl-1,4-dimethyl-1H-benzotriazol-5-yl)-3-(7-{[(2R,5S)-2-ethyl-5-methyl-2,3-dihydropyrido[2,3-f][1,4]oxazepin-4(5H)-yl]methyl}-2,3-dihydro-1H-inden-5-yl)propanoic acid]", "values": [{"measurement": "IC50", "setting": "[1]", "result": "10 to 30", "unit": "nM"}, {"measurement": "fold induction at 0.4 µM", "setting": "[2]", "result": "> 5"}]}, {"compound": "CC[C@@H]1CN(Cc2cc([C@H](CC(=O)O)c3ccc4c(nnn4C)c3C)cc3ccsc23)S(=O)(=O)c2cc(Cl)c(F)cc2O1", "note": "[Example 23, (3S)-3-(7-{[(4R)-8-Chloro-4-ethyl-7-fluoro-1,1-dioxido-3,4-dihydro-2H-5,1,2-benzoxathiazepin-2-yl]methyl}-1-benzothiophen-5-yl)-3-(1,4-dimethyl-1H-benzotriazol-5-yl)propanoic acid]", "values": [{"measurement": "IC50", "setting": "[1]", "result": "≤ 10", "unit": "nM"}, {"measurement": "fold induction at 0.4 µM", "setting": "[2]", "result": "> 5"}]}, {"compound": "CC[C@@H]1CN(Cc2cc([C@@H](CC(=O)O)c3cc(C4CC4)c4c(nnn4C)c3C)cc3ccsc23)S(=O)(=O)c2cc(Cl)cnc2O1", "note": "[Example 37, (3R)-3-(7-{[(4R)-8-Chloro-4-ethyl-1,1-dioxido-3,4-dihydro-2H-pyrido[2,3-b][1,4,5]oxathiazepin-2-yl]methyl}-1-benzothiophen-5-yl)-3-(7-cyclopropyl-1,4-dimethyl-1H-benzotriazol-5-yl)propanoic acid]", "values": [{"measurement": "IC50", "setting": "[1]", "result": "≤ 10", "unit": "nM"}, {"measurement": "fold induction at 0.4 µM", "setting": "[2]", "result": "3 to 5"}]}, {"compound": "CC[C@@H]1CN(Cc2cc(C(CC(=O)O)c3ccc4c(nnn4CC(C)(C)O)c3C)cc3ccsc23)S(=O)(=O)c2cc(Cl)cnc2O1", "note": "(stereo partly drawn) [Example 56, 3-(7-{[(4R)-8-Chloro-4-ethyl-1,1-dioxido-3,4-dihydro-2H-pyrido[2,3-b][1,4,5]oxathiazepin-2-yl]methyl}-1-benzothiophen-5-yl)-3-[1-(2-hydroxy-2-methylpropyl)-4-methyl-1H-benzotriazol-5-yl]propanoic acid]", "values": [{"measurement": "IC50", "setting": "[1]", "result": "10 to 30", "unit": "nM"}, {"measurement": "fold induction at 0.4 µM", "setting": "[2]", "result": "> 5"}]}, {"compound": "CC[C@@H]1CN(Cc2cc(C(CC(=O)O)c3ccc4c(nnn4C)c3C)cc3c2CCC3)S(=O)(=O)c2cc(Cl)ccc2O1", "note": "(stereo partly drawn) [Example 14, 3-(7-{[(4R)-8-Chloro-4-ethyl-1,1-dioxido-3,4-dihydro-2H-5,1,2-benzoxathiazepin-2-yl]methyl}-2,3-dihydro-1H-inden-5-yl)-3-(1,4-dimethyl-1H-benzotriazol-5-yl)propanoic acid]", "values": [{"measurement": "IC50", "setting": "[1]", "result": "10 to 30", "unit": "nM"}, {"measurement": "fold induction at 0.4 µM", "setting": "[2]", "result": "> 5"}]}, {"compound": "CCC1c2ncccc2O[C@H](CC)CN1Cc1cc([C@H](CC(=O)O)c2ccc3c(nnn3C)c2C)cc2ccsc12", "note": "(single isomer, unassigned) [Example 76, (3S)-3-(7-{[(2R,5R*)-2,5-Diethyl-2,3-dihydropyrido[2,3-f][1,4]oxazepin-4(5H)-yl]methyl}-1-benzothiophen-5-yl)-3-(1,4-dimethyl-1H-benzotriazol-5-yl)propanoic acid]", "values": [{"measurement": "IC50", "setting": "[1]", "result": "≤ 10", "unit": "nM"}, {"measurement": "fold induction at 0.4 µM", "setting": "[2]", "result": "> 5"}]}, {"compound": "Cc1c([C@H](CC(=O)O)c2cc(CN3C[C@@H](C4CC4)Oc4ccc(O)nc4C3C)c3sccc3c2)ccc2c1nnn2C", "note": "(single isomer, unassigned) [Example 83, (3R)-3-(7-{[(2R,5S*)-2-Cyclopropyl-7-hydroxy-5-methyl-2,3-dihydropyrido[2,3-f][1,4]oxazepin-4(5H)-yl]methyl}-1-benzothiophen-5-yl)-3-(1,4-dimethyl-1H-benzotriazol-5-yl)propanoic acid]", "values": [{"measurement": "IC50", "setting": "[1]", "result": "30 to 100", "unit": "nM"}, {"measurement": "fold induction at 0.4 µM", "setting": "[2]", "result": "> 5"}]}, {"compound": "CC[C@@H]1CN(Cc2cc(C(CC(=O)O)c3ccc4c(nnn4C)c3C)cc3c2CCC3)S(=O)(=O)c2cccc(Cl)c2O1", "note": "(stereo partly drawn) [Example 16, 3-(7-{[(4R)-6-Chloro-4-ethyl-1,1-dioxido-3,4-dihydro-2H-5,1,2-benzoxathiazepin-2-yl]methyl}-2,3-dihydro-1H-inden-5-yl)-3-(1,4-dimethyl-1H-benzotriazol-5-yl)propanoic acid]", "values": [{"measurement": "IC50", "setting": "[1]", "result": "≤ 10", "unit": "nM"}, {"measurement": "fold induction at 0.4 µM", "setting": "[2]", "result": "> 5"}]}, {"compound": "CC[C@@H]1CN(Cc2cc([C@@H](CC(=O)O)c3cc(C)c4c(nnn4C)c3C)cc3ccsc23)[C@@H](C)c2ncccc2O1", "note": "[Example 67, (3R)-3-(7-{[(2R,5S)-2-Ethyl-5-methyl-2,3-dihydropyrido[2,3-f][1,4]oxazepin-4(5H)-yl]methyl}-1-benzothiophen-5-yl)-3-(1,4,7-trimethyl-1H-benzotriazol-5-yl)propanoic acid]", "values": [{"measurement": "IC50", "setting": "[1]", "result": "≤ 10", "unit": "nM"}, {"measurement": "fold induction at 0.4 µM", "setting": "[2]", "result": "> 5"}]}]}
